Data: patent US7683168B2, “Compositions of novel opioid compounds and method of use thereof” (priority 2005, dated 2010)

What was measured:
[1] = test system: seizure-like convulsions in mice; assay: mouse seizure-like convulsions; format: in vivo
Procedure, shortened: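 Male CD-1 mice (Charles River, Raleigh, N.C.) of 20-25 g were dosed and watched for one hour to detect seizure-like convulsions mediated by central delta receptors. An event was counted when clonic or tonic/clonic muscle movements involved the whole body, usually followed by brief catalepsy, judged by no attempt to withdraw front paws from a bar 2-3 inches above the floor.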

mouse vas deferens = assay: electrically stimulated mouse vas deferens (MVD) ED50; format: cell-based; conditions: ED50, inhibition of electrically induced contractions
δ opioid receptor = target: T1, δ opioid receptor (Rattus norvegicus, UniProt P33533); assay: radioligand binding, δ opioid receptor, rat brain membranes; conditions: cell marked (rat), tritium-labeled Deltorphin II
T1 construct: tissue Pel-Freeze Biological Inc. (Rogers, Ark.); host or cells: rat whole brain

μ opioid receptor = target: T2, μ opioid receptor (Rattus norvegicus, UniProt P33535); assay: radioligand binding, μ opioid receptor, rat brain membranes; conditions: cell marked (rat), tritium-labeled DAMGO
T2 construct: tissue Pel-Freeze Biological Inc. (Rogers, Ark.); host or cells: rat whole brain

κ opioid receptor = target: T3, κ opioid receptor (Cavia porcellus, UniProt P41144); assay: radioligand binding, κ opioid receptor, guinea pig cerebellum; conditions: tritium-labeled U69593
T3 construct: tissue Pel-Freeze Biological Inc. (Rogers, Ark.); host or cells: guinea pig cerebellum

human mu opioid receptor = target: T4, human mu opioid receptor (Homo sapiens, UniProt P35372); assay: radioligand binding, human mu opioid receptor, CHO cell membranes; conditions: species not given, read-out: μ
T4 construct: purchased Perkin Elmer, Boston, Mass; 6110535; host or cells: CHO cells

human delta receptor = target: T5, human delta receptor (Homo sapiens, UniProt P41143); assay: radioligand binding, human delta receptor, HEK-293 cell membranes; conditions: cell not marked (rat), species not given, read-out: δ
T5 construct: purchased Perkin Elmer, Boston, Mass; 6110549; host or cells: HEK-293 cells

guinea pig ileum = assay: electrically stimulated guinea pig ileum (GPI) ED50; format: cell-based; conditions: Cavia porcellus; ED50, inhibition of electrically induced contractions
Procedure: Further the compounds of formula (1) were evaluated for in vitro opioid receptor activity in various receptor systems, including mouse vas deferens (Mouse Vas Deferens ED50), and guinea pig ileum (Guinea Pig Ileum ED50). The assay procedures used for such determinations of receptor activity are set out below.
Intact ileums (about 3 cm length) were removed from guinea pig and suspended with 1 g of tension in a bath chamber as described for the vasa deferentia. The ileums were stimulated with electrical square-wave pulses of 0.1-Hz, 1 msec pulse duration at supramaximal voltage.
The ED50 values were extrapolated from curves showing the dose concentration plotted against the response (J. A. H. Lord, A. A. Waterfield, J. Hughes, H. W. Kosterlitz, Nature 267, 495, (1977)).

T4 sequence (P35372 whole entry): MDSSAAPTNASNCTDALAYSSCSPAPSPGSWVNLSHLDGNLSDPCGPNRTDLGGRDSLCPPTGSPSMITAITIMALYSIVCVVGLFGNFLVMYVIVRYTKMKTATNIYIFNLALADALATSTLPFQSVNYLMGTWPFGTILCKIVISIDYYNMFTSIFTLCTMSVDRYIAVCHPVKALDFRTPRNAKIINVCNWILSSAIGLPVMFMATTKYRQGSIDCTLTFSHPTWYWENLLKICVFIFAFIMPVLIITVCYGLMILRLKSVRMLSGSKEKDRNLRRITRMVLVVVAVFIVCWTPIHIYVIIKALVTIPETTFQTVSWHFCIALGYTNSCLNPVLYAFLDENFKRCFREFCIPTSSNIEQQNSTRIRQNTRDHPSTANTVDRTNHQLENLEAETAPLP
T1 sequence (P33533 whole entry): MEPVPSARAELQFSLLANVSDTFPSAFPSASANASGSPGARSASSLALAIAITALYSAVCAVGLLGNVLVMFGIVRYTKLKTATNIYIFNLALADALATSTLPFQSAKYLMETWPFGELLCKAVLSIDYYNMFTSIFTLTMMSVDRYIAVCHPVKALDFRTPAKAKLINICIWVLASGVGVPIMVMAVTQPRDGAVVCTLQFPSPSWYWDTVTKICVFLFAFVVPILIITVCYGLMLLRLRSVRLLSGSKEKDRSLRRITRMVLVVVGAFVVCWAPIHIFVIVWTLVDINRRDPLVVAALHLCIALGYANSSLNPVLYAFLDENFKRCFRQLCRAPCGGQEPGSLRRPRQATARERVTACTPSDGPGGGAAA
T3 sequence (P41144 whole entry): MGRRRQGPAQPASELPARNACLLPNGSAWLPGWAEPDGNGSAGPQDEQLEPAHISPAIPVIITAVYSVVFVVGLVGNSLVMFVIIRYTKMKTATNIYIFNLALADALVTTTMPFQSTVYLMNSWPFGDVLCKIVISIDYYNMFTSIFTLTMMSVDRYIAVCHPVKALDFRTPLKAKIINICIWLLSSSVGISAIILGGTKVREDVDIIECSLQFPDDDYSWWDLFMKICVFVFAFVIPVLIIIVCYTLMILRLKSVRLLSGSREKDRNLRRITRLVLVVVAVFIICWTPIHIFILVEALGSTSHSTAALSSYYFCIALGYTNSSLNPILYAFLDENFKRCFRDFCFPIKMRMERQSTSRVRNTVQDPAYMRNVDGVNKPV
T5 sequence (P41143 whole entry): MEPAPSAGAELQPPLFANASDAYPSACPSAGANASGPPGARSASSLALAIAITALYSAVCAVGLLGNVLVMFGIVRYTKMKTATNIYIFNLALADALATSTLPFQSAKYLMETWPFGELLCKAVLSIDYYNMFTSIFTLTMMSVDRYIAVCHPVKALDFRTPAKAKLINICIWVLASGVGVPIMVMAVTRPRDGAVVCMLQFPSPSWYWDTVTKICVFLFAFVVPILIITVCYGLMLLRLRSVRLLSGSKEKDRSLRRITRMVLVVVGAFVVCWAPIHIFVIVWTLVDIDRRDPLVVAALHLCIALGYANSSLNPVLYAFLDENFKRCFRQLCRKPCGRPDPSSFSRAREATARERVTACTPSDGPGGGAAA
T2 sequence (P33535 whole entry): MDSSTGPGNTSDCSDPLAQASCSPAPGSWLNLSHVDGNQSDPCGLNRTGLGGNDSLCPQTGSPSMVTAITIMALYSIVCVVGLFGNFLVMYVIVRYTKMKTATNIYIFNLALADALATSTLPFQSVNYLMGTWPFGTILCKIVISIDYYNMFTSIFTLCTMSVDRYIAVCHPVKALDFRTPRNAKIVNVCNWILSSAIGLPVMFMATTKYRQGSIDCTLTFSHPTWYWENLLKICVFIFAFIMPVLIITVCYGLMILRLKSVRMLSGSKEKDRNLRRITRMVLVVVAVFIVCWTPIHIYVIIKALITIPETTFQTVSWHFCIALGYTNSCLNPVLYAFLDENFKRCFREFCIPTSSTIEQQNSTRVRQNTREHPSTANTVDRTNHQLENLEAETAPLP

SMILES | Seiz. ([1]; 10 mg/kg IV) | EC50 (mouse vas deferens) [nM] | Ki (δ opioid receptor) [nM] | Ki (μ opioid receptor) [nM] | Ki (κ opioid receptor) [nM] | Seiz. ([1]; 3 mg/kg IV) [%] | Ki (human mu opioid receptor) [nM] | Ki (human delta receptor) [nM] | EC50 (guinea pig ileum) [nM] | Seiz. ([1]; 20 mg/kg IV) | Seiz. ([1]; 200 mg/kg PO & SC) | Seiz. ([1]; 100 mg/kg SC)
C=CCN1C[C@H](C)N(C(c2cccc(O)c2)c2cccc(C(=O)N3CCCNCC3)c2)C[C@H]1C (stereo partly drawn) | 45% 10 mg/kg IV | 6.07 | 4.68 | 1.61 | 1.6 | – | – | – | – | – | – | –
C=CCN1C[C@H](C)N(C(c2cccc(O)c2)c2cccc(C(=O)N3CCCN(CC(=O)OCC)CC3)c2)C[C@H]1C (stereo partly drawn) | 25% 10 mg/kg IV | 1.36 | 1.35 | 3.33 | 4.15 | – | – | – | – | – | – | –
C=CCN1C[C@H](C)N(C(c2cccc(O)c2)c2cccc(C(=O)N3CCCN(CC(=O)O)CC3)c2)C[C@H]1C (stereo partly drawn) | 10% | 4.7 | 3.53 | 3.03 | 12.7 | 0 | – | – | – | – | – | –
CCOC(=O)CN1CCCN(C(=O)c2cccc(C(c3cccc(O)c3)N3C[C@@H](C)N(Cc4ccccc4)C[C@@H]3C)c2)CC1 (stereo partly drawn) | 60% 10 mg/kg IV | 2.4 | – | – | – | – | 0.56 | 0.21 | 526 | – | – | –
CCOC(=O)CN1CCCN(C(=O)c2cccc(C(c3cccc(O)c3)N3C[C@@H](C)N(Cc4cccc(F)c4)C[C@@H]3C)c2)CC1 (stereo partly drawn) | 20% 10 mg/kg IV | 13.4 | – | – | – | – | 2.6 | 5.4 | 761 | – | – | –
CCOC(=O)CCN1CCCN(C(=O)c2cccc([C@H](c3cccc(O)c3)N3C[C@@H](C)N(Cc4cccc(F)c4)C[C@@H]3C)c2)CC1 | 20% 10 mg/kg IV | 17.1 | – | – | – | – | 4.8 | 71 | 978 | – | – | –
C[C@@H]1CN([C@@H](c2cccc(O)c2)c2cccc(C(=O)N3CCCN(CCC(=O)O)CC3)c2)[C@@H](C)CN1Cc1cccc(F)c1 | – | 4 | – | – | – | – | 7.7 | 4.17 | 154 | 0% 200 mg/kg PO & SC 0% 20 mg/kg IV | 0% 200 mg/kg PO & SC 0% 20 mg/kg IV | –
CCOC(=O)CCN1CCCN(C(=O)c2cccc([C@H](c3cccc(O)c3)N3C[C@@H](C)N(CC4CC4)C[C@@H]3C)c2)CC1 | 0% 10 mg/kg IV | 22.6 | – | – | – | – | 2.9 | 121 | 567 | – | – | –
C[C@@H]1CN([C@@H](c2cccc(O)c2)c2cccc(C(=O)N3CCCN(CCC(=O)O)CC3)c2)[C@@H](C)CN1CC1CC1 | – | 66 | – | – | – | – | 22.3 | 69 | 664 | 0% 20 mg/kg IV | – | –
C[C@@H]1CN(C(c2cccc(O)c2)c2cccc(C(=O)N3CCCN(CCCC(=O)O)CC3)c2)[C@@H](C)CN1Cc1ccccc1 (stereo partly drawn) | 0% 10 mg/kg IV | 1.07 | – | – | – | – | 1.9 | 14.8 | 159 | – | – | –
C=CCN1C[C@H](C)N([C@@H](c2cccc(O)c2)c2cccc(C(=O)N3CCCN(CCCCC(=O)O)CC3)c2)C[C@H]1C | 0% 10 mg/kg IV 0% 100 mg/kg SC | 3.33 | 6.43 | 9 | 27.7 | – | – | – | – | – | – | 0% 10 mg/kg IV 0% 100 mg/kg SC
C=CCN1C[C@H](C)N(C(c2cccc(O)c2)c2cccc(C(=O)N3CCCN(Cc4ccc(C(=O)O)cc4)CC3)c2)C[C@H]1C (stereo partly drawn) | 0% 10 mg/kg IV | 3.1 | – | – | – | – | 4 | 0.39 | 150 | – | – | –
CCOC(=O)CN1CCN(C(=O)c2cccc([C@H](c3cccc(O)c3)N3C[C@@H](C)N(Cc4ccccc4)C[C@@H]3C)c2)CC1 [Example 68, (4-{3-[(R)-((2S,5R)-4-Benzyl-2,5-dimethyl-piperazin-1-yl)-(3-hydroxy-phenyl)-methyl]-benzoyl}-piperazin-1-yl)-acetic acid ethyl ester] | 80% 10 mg/kg IV | 1.91 | – | – | – | – | 1.22 | 0.73 | 526 | – | – | –
C[C@@H]1CN([C@@H](c2cccc(O)c2)c2cccc(C(=O)N3CCN(CC(=O)O)CC3)c2)[C@@H](C)CN1Cc1ccccc1 [Example 69, (4-{3-[(R)-((2S,5R)-4-Benzyl-2,5-dimethyl-piperazin-1-yl)-(3-hydroxy-phenyl)-methyl]-benzoyl}-piperazin-1-yl)-acetic acid] | 0% 10 mg/kg IV | 0.48 | – | – | – | – | 1.36 | 0.54 | 47.8 | – | – | –
C=CCN1C[C@H](C)N([C@@H](c2cccc(O)c2)c2cccc(C(=O)N3CCN(CCCC(=O)O)CC3)c2)C[C@H]1C [Example 75] | 0% 10 mg/kg IV | 4.1 | – | – | – | – | 10.8 | 25.3 | 178 | – | – | –
C[C@@H]1CN([C@@H](c2cccc(O)c2)c2cccc(C(=O)N3CCN(CCCC(=O)O)CC3)c2)[C@@H](C)CN1Cc1ccccc1 [Example 80, 4-(4-{3-[(R)-((2S,5R)-4-Benzyl-2,5-dimethyl-piperazin-1-yl)-(3-hydroxy-phenyl)-methyl]-benzoyl}-piperazin-1-yl)-butyric acid] | 0% 10 mg/kg IV | 0.34 | – | – | – | – | 5.3 | 5.7 | 104 | – | – | –
C=CCN1C[C@H](C)N([C@@H](c2cccc(O)c2)c2cccc(C(=O)N3CCN(CCCCC(=O)O)CC3)c2)C[C@H]1C [Example 84, 5-(4-{3-[(R)-((2S,5R)-4-Allyl-2,5-dimethyl-piperazin-1-yl)-(3-hydroxy-phenyl)-methyl]-benzoyl}-piperazin-1-yl)-pentanoic acid] | 0% 10 mg/kg IV | 3.76 | – | – | – | – | 57.3 | 13.4 | 209 | – | – | –
C=CCN1C[C@H](C)N([C@@H](c2cccc(O)c2)c2cccc(C(=O)N3CCC(C(=O)OCC)CC3)c2)C[C@H]1C [Example 119, 1-{3-[(R)-((2S,5R)-4-Allyl-2,5-dimethylpiperazin-1-yl)-(3-hydroxy-phenyl)methyl]benzoyl}piperidine-4-carboxylic acid ethyl ester] | 80% 10 mg/kg IV | 1.96 | – | – | – | – | 0.54 | 2.95 | 86.3 | – | – | –
CCOC(=O)C1CCN(C(=O)c2cccc([C@H](c3cccc(O)c3)N3C[C@@H](C)N(Cc4ccccc4)C[C@@H]3C)c2)CC1 [Example 122, 1-{3-[(R)-((2S,5R)-4-Benzyl-2,5-dimethyl-piperazin-1-yl)-(3-hydroxy-phenyl)-methyl]-benzoyl}-piperidine-4-carboxylic acid ethyl ester] | 70% 10 mg/kg IV | 0.82 | – | – | – | – | 1.9 | 4.5 | 153 | – | – | –
CCOC(=O)C1CCN(C(=O)c2cccc([C@H](c3cccc(O)c3)N3C[C@@H](C)N(Cc4cccc(F)c4)C[C@@H]3C)c2)CC1 [Example 124, 1-{3-[(R)-[(2S,5R)-4-(3-Fluoro-benzyl)-2,5-dimethyl-piperazin-1-yl]-(3-hydroxy-phenyl)-methyl]-benzoyl}-piperidine-4-carboxylic acid ethyl ester] | 10% 10 mg/kg IV | 2.54 | – | – | – | – | 3.5 | 28.6 | 1680 | – | – | –
CCOC(=O)C1CCN(C(=O)c2cccc([C@H](c3cccc(O)c3)N3C[C@@H](C)N(CC4CC4)C[C@@H]3C)c2)CC1 [Example 126, 1-{3-[(R)-((1S,4R)-4-Cyclopropylmethyl-2,5-dimethyl-piperazin-1-yl)-(3-hydroxy-phenyl)-methyl]-benzoyl}-piperidine-4-carboxylic acid ethyl ester] | 10% 10 mg/kg IV | 8.64 | – | – | – | – | 1.5 | 3.7 | 3310 | – | – | –
C[C@@H]1CN([C@@H](c2cccc(O)c2)c2cccc(C(=O)N3CCC(C(=O)O)CC3)c2)[C@@H](C)CN1CC1CC1 [Example 127, 1-{3-[(R)-((1S,4R)-4-Cyclopropylmethyl-2,5-dimethyl-piperazin-1-yl)-(3-hydroxy-phenyl)-methyl]-benzoyl}-piperidine-4-carboxylic acid] | 0% 10 mg/kg IV | 11.5 | – | – | – | – | – | 4.35 | 242 | – | – | –
C=CCN1C[C@H](C)N([C@@H](c2cccc(O)c2)c2cccc(C(=O)N3CCC(O)CC3)c2)C[C@H]1C [Example 134, {3-[(R)-((2S,5R)-4-Allyl-2,5-dimethyl-piperazin-1-yl)-(3-hydroxy-phenyl)-methyl]-phenyl}-(4-hydroxy-piperidin-1-yl)-methanone] | 0% 10 mg/kg IV | 5.44 | – | – | – | – | 1.1 | 0.36 | 46.7 | – | – | –
